Values quoted from earlier work as cited in US20200030399A1, “HERBAL COMPOSITIONS OF CALIFORNIA POPPY AND METHOD FOR THE TREATMENT OF SLEEP AND DREAM-RELATED DISORDERS” (MONDIAS NATURELS INC., priority 2017, published 2020).

Tests used:
[1] = test system: dexamphetamine produced mortality; conditions: mice
[2] = test system: stereotyped behaviour effects of dexamphetamine; conditions: mice
pentetylenetetrazole = conditions: mice
myorelaxant effects = conditions: mice
[3] = test system: anticholinergic effects of Oxotremorine; conditions: mice
acetic acid writhing = conditions: mice; doses not given; dose-response for the extract
[4] = test system: reserpine-induced ptosis, akinesia or hypothermia; conditions: mice

## CN(C)CCCN1c2ccccc2Sc2ccc(Cl)cc21 [Chlorpromazine]
[1]
  protective effect against dexamphetamine produced mortality: a protective effect was observed
[2]
  stereotyped behaviour effects of dexamphetamine: significantly decreased

## O=C(O)C1N=C(c2ccccc2)c2cc(Cl)ccc2NC1=O (centres unmarked) [Clorazepate, Clorazepate dipotassium]
pentetylenetetrazole
  anticonvulsant effects: Dose-dependent anticonvulsant and myorelaxant effects
Myorelaxant effects
  myorelaxant effects: Dose-dependent anticonvulsant and myorelaxant effects

## CN(C)CCCN1c2ccccc2CCc2ccccc21 [Imipramine]
[3]
  effect against the anticholinergic effects of Oxotremorine: significantly reduced

## CC(=O)Oc1ccccc1C(=O)O [acetylsalicylic acid]
Acetic acid writhing
  Protection against writing (acetic acid writhing): 60%

## CN(C)CCC=C1c2ccccc2CCc2ccccc21 [amitryptiline]
[4]
  effect against reserpine-induced ptosis, akinesia or hypothermia: significantly reduced ptosis and hypothermia

## CC(=O)Nc1ccc(O)cc1 [paracetamol]
Acetic acid writhing
  Protection against writing (acetic acid writhing): 60%
